Assay results published in patent US11780845B2 (Relay Therapeutics, Inc., priority 2019, dated 2023).

Columns and labels:
FGFR2 = FGFR2 (Homo sapiens (Human), UniProt P21802); assay: Biochemical FGFR2 Caliper assay
SNU-16 = assay: Cell SNU-16 assay; assay type: cell-based
[1] = Homo sapiens, SNU-16, SNU-16 cells

FGFR2, sequence (P21802 22-821): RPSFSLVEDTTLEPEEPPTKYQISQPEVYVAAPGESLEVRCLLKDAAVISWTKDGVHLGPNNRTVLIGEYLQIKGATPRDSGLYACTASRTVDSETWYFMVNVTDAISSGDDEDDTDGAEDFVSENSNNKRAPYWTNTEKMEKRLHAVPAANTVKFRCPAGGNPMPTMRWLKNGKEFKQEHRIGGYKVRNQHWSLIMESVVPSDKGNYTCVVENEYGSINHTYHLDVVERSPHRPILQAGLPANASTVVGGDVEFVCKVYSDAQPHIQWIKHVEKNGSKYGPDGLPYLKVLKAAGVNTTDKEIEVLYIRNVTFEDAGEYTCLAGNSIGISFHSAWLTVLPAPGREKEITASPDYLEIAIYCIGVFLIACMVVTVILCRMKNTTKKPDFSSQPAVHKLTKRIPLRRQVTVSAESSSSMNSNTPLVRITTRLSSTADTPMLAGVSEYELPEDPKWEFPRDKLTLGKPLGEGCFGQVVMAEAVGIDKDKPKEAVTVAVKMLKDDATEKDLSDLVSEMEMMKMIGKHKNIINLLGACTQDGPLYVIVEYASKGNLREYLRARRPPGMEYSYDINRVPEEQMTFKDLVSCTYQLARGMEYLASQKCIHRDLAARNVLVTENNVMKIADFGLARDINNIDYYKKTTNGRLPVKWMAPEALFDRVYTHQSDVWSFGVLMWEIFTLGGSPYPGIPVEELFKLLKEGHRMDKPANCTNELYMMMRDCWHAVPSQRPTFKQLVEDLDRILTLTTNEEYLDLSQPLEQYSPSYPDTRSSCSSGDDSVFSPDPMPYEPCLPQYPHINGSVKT

Row | Structure (SMILES) | IC50 (FGFR2) [µM] | IC50 (SNU-16; [1]) [µM] | IC50 (SNU-16; SNU-16 cells) [µM]
1 | C=C(C)C(=O)Nc1ccc(-c2c(-c3ccc(C(=O)c4cccc(C)n4)cc3)c3c(N)ncnn3c2COC)cc1 [Example 853] | 0.25 to 1 | 0.1 to 0.25 | –
2 | C=CC(=O)N1CCC(n2cc(-c3c(-c4ccc(C(=O)NCC(C)(C)O)cc4)c4c(N)ncnc4n3C)cn2)CC1 [Example 854] | 0.1 to 0.25 | ≤ 0.1 | –
3 | C=CC(=O)N1CCC(n2cc(-c3c(-c4ccc(Oc5ccn(C)n5)cc4)c4c(N)ncnc4n3C)cn2)CC1 [Example 855] | 0.25 to 1 | 1 to 100 | –
4 | C=C(C)C(=O)Nc1ccc(-c2c(-c3ccc(Oc4cccc(C)n4)cc3)c3c(N)ncnn3c2CN(C)C)cc1 [Example 856] | 0.25 to 1 | 0.25 to 1 | –
5 | C=C(C)C(=O)Nc1ccc(-c2[nH]c3ncnc(N)c3c2-c2ccc(Oc3cccc(C)n3)cc2)nc1 [Example 857] | 1 to 100 | 1 to 100 | –
6 | Cn1c(C2CCN(C#N)C2)c(-c2ccc(C(=O)N3CCCC3)cc2)c2c(N)ncnc21 (centres unmarked) [Example 858] | < 0.1 | ≤ 0.1 | –
7 | C=CS(=O)(=O)N1CCC(c2c(-c3ccc(C(=O)N4CCCC4)cc3)c3c(N)ncnc3n2C)C1 (centres unmarked) [Example 859] | 1 to 100 | 1 to 100 | –
8 | C=C(C)C(=O)Nc1ccc(-c2nn3ccnc(N)c3c2-c2ccc(C(=O)N3CCCC3)cc2)cc1 [Example 862] | 1 to 100 | 1 to 100 | –
9 | C=C(C)C(=O)Nc1cc(-c2c(-c3ccc(C(=O)N4CCCC4)cc3)c3c(N)ncnc3n2C)n(C)n1 [Example 865] | 0.1 to 0.25 | – | 0.25 to 1
10 | C=C(C)C(=O)Nc1cc(-c2c(-c3ccc(C(=O)N4CCCC4)cc3)c3c(N)ncnc3n2C)n(C)n1 [Example 866] | < 0.1 | – | ≤ 0.1
11 | C=C(C)C(=O)Nc1ccc(-c2nn3ccnc(N)c3c2C2=CCC(C(=O)N3CCCC3)CC2)cc1 (centres unmarked) [Example 868] | 1 to 100 | 1 to 100 | –
12 | C=C(C)C(=O)Nc1ccc(-c2c(-c3ccc(C(=O)N4CCCC4)cc3)c3c(N)n[nH]c(=O)c3n2C)cc1 [Example 870] | 1 to 100 | – | 0.1 to 0.25
13 | C=Cc1ncc(-c2c(-c3ccc(Oc4nccc(C)n4)cc3)c3c(N)ncnc3n2C)cn1 [Example 877] | 0.1 to 0.25 | 0.25 to 1 | –
14 | C=C(C)C(=O)Nc1ccc(-c2c(-c3ccc(C(=O)N4CCCC4)cc3)c3c(N)nn(C)c(=O)c3n2C)cc1 [Example 878] | 0.1 to 0.25 | ≤ 0.1 | –
15 | C=C(C)C(=O)Nc1ccc(-c2c(-c3ccc(C(=O)N4CCCC4)cc3)c3c(N)n[nH]c(=O)c3n2C)cc1 [Example 879] | 1 to 100 | – | 1 to 100
16 | C=C(C)C(=O)N[C@H]1C[C@H](c2c(-c3ccc(C(=O)N4CCCC4)cc3)c3c(N)ncnc3n2C)C1 [Example 880] | 1 to 100 | 1 to 100 | –
17 | Cn1c(-c2ccc(NC(=O)CC#N)cc2)c(-c2ccc(C(=O)N3CCCC3)cc2)c2c(N)ncnc21 [Example 881] | 1 to 100 | 1 to 100 | –
18 | C=C(C)C(=O)Nc1ccc(-c2c(C3=C(F)C[C@H](C(=O)N4CCCC4)CC3)c3c(N)ncnc3n2C)cc1 [Example 882] | 1 to 100 | 1 to 100 | –
19 | C=CC(=O)N1CC(c2c(-c3ccc(C(=O)c4nccc(C)n4)cc3F)c3c(N)ncnc3n2C)C[C@@H]1C (some centres unmarked) [Example 885] | 1 to 100 | – | 1 to 100
20 | C=CC(=O)N1CC(c2c(-c3ccc(C(=O)c4nccc(C)n4)cc3F)c3c(N)ncnc3n2C)C[C@@H]1C (some centres unmarked) [Example 886] | 0.25 to 1 | – | ≤ 0.1

Row | Structure (SMILES) | IC50 (FGFR2) [µM] | IC50 (SNU-16; [1]) [µM] | IC50 (SNU-16; SNU-16 cells) [µM]
21 | C=CC(=O)N1CC(c2c(C3=CC[C@H](C(=O)N4CCCC4)CC3)c3c(N)ncnc3n2C)C[C@@H]1C (some centres unmarked) [Example 889] | 0.25 to 1 | 0.1 to 0.25 | –
22 | C=CC(=O)N1CC(c2c(C3=CC[C@@H](C(=O)N4CCCC4)CC3)c3c(N)ncnc3n2C)C[C@@H]1C (some centres unmarked) [Example 890] | 1 to 100 | 1 to 100 | –
23 | C=Cc1nc2cc(-c3c(-c4ccc(C(=O)N5CCCC5)cc4)c4c(N)ncnc4n3C)ccc2n1C [Example 893] | 1 to 100 | 1 to 100 | –
24 | C=Cc1nc2ccc(-c3c(-c4ccc(C(=O)N5CCCC5)cc4)c4c(N)ncnc4n3C)cc2n1C [Example 895] | 1 to 100 | 1 to 100 | –
25 | Cc1ccnc(Oc2ccc(-c3c(-c4ccc(NC(=O)CCl)cc4)n(C)c4ncnc(N)c34)cc2)n1 [Example 897] | 0.1 to 0.25 | ≤ 0.1 | –
26 | C=C(C)C(=O)Nc1ccc(-c2c(-n3ccc(C(=O)N4CCCC4)cc3=O)c3c(N)ncnc3n2C)cc1 [Example 898] | < 0.1 | ≤ 0.1 | –
27 | Cn1c(-c2ccc(NC(=O)C3CN3)cc2)c(-c2ccc(C(=O)N3CCCC3)cc2)c2c(N)ncnc21 (centres unmarked) [Example 901] | 1 to 100 | 1 to 100 | –
28 | COC(=O)Nc1ccc(-c2c(-c3ccc(C(=O)N4CCCC4)cc3)c3c(N)ncnc3n2C)cc1 [Example 902] | 1 to 100 | 1 to 100 | –
29 | C=C(C)C(=O)N1CC(c2c(-c3ccc(C(=O)N4CCCC4)cc3)c3c(N)ncnc3n2C)=C[C@@H]1C [Example 903] | 1 to 100 | 1 to 100 | –
30 | Cc1ccnc(Oc2ccc(-c3c(-c4ccc(NC(=O)C5=CCOC5)cc4)n(C)c4ncnc(N)c34)cc2)n1 [Example 904] | 1 to 100 | 1 to 100 | –
31 | C=C(C)C(=O)Nc1ccc(-c2c(-c3ccc4c(c3)OCC4c3cccc(C)n3)c3c(N)ncnc3n2C)cc1 (centres unmarked) [Example 907] | < 0.1 | ≤ 0.1 | –
32 | C=C(C)C(=O)Nc1ccc(-c2c(-c3ccc(C(=O)NCC(C)C)c(OC)c3)c3c(N)ncnc3n2C)cc1 [Example 910] | 1 to 100 | 1 to 100 | –
33 | C=C(C)C(=O)Nc1ccc(-c2c(-c3ccc(C(=O)NC4CCC4)c(OC)c3)c3c(N)ncnc3n2C)cc1 [Example 911] | < 0.1 | ≤ 0.1 | –
34 | C=C(C)C(=O)Nc1ccc(-c2c(-c3ccc(C(=O)NC4CC(F)(F)C4)c(OC)c3)c3c(N)ncnc3n2C)cc1 [Example 912] | < 0.1 | ≤ 0.1 | –
35 | Cc1ccnc(Oc2ccc(-c3c(-c4ccc(-c5cnc(C#N)o5)cc4)n(C)c4ncnc(N)c34)cc2)n1 [Example 915] | 1 to 100 | 0.25 to 1 | –
36 | C=CC(=O)N1CCc2ccc(-c3c(-c4ccc(Oc5nccc(C)n5)cc4)c4c(N)ncnc4n3C)cc2C1 [Example 916] | 1 to 100 | 0.1 to 0.25 | –
37 | C=CC(=O)NCc1ccc(-c2c(-c3ccc(Oc4nccc(C)n4)cc3)c3c(N)ncnc3n2C)cc1 [Example 921] | 1 to 100 | 0.25 to 1 | –
38 | C=C(C)C(=O)Nc1ccc(-c2c(C3=CCN(C(=O)C4CCCC4)CC3)c3c(N)ncnc3n2C)cc1 [Example 922] | 0.25 to 1 | 0.25 to 1 | –
39 | C=C(C)C(=O)Nc1ccc(-c2c(C3=CCN(C(=O)N4CCCC4)CC3)c3c(N)ncnc3n2C)cc1 [Example 923] | 1 to 100 | 0.25 to 1 | –
40 | CC1=CCN(c2ccc(-c3c(-c4ccc(Oc5nccc(C)n5)cc4)c4c(N)ncnc4n3C)cc2)C1=O [Example 924] | 1 to 100 | – | 1 to 100

Row | Structure (SMILES) | IC50 (FGFR2) [µM] | IC50 (SNU-16; [1]) [µM] | IC50 (SNU-16; SNU-16 cells) [µM]
41 | C=C(C)C(=O)Nc1ccc(-c2c(C3=CC[C@@H](C(=O)N4CCCC4)C[C@@H]3C)c3c(N)ncnc3n2C)cc1 [Example 937] | 1 to 100 | 1 to 100 | –
42 | C=CC(=O)NC(C)(C)c1ccc(-c2c(-c3ccc(Oc4nccc(C)n4)cc3)c3c(N)ncnc3n2C)cc1 [Example 943] | 0.25 to 1 | 0.25 to 1 | –
43 | C=C(C)C(=O)Nc1ccc(-c2c(-c3ccc(C(=O)NCC4(F)CCC4)c(OC)c3)c3c(N)ncnc3n2C)cc1 [Example 946] | 0.25 to 1 | 1 to 100 | –
44 | C=Cc1ncc(-c2ccc(-c3c(-c4ccc(Oc5nccc(C)n5)cc4)c4c(N)ncnc4n3C)cc2)o1 [Example 947] | < 0.1 | ≤ 0.1 | –
45 | Cc1ccnc(Oc2ccc(-c3c(-c4ccc(NCC5CO5)cc4)n(C)c4ncnc(N)c34)cc2)n1 (centres unmarked) [Example 948] | 1 to 100 | 1 to 100 | –
46 | Cc1ccnc(Oc2ccc(-c3c(-c4ccc(NC(=O)C5=COCC5)cc4)n(C)c4ncnc(N)c34)cc2)n1 [Example 952] | < 0.1 | ≤ 0.1 | –
47 | C=C(C)C(=O)Nc1ccc(-c2c(-c3ccc(C(=O)NC4(COC)CCC4)c(OC)c3)c3c(N)ncnc3n2C)cc1 [Example 956] | < 0.1 | ≤ 0.1 | –
48 | Cc1ccnc(Oc2ccc(-c3c(-c4ccc(-c5cnc(C#N)s5)cc4)n(C)c4ncnc(N)c34)cc2)n1 [Example 959] | 0.25 to 1 | ≤ 0.1 | –
49 | C=C(C)C(=O)Nc1ccc(-c2c(-c3ccc(C(=O)N[C@H]4C[C@@H](F)C4)c(OC)c3)c3c(N)ncnc3n2C)cc1 [Example 964] | < 0.1 | ≤ 0.1 | –
50 | C=C(C)C(=O)Nc1ccc(-c2c(-c3ccc(C(=O)N[C@H]4C[C@H](F)C4)c(OC)c3)c3c(N)ncnc3n2C)cc1 [Example 965] | < 0.1 | ≤ 0.1 | –
51 | C=C(C)C(=O)Nc1ccc(-c2c(-c3ccc(C(=O)N[C@H]4C[C@H](F)C4)c(COC)c3)c3c(N)ncnc3n2C)cc1 [Example 966] | < 0.1 | ≤ 0.1 | –
52 | C=C(C)C(=O)Nc1ccc(-c2c(-c3ccc(C(=O)N[C@H]4C[C@@H](F)C4)c(COC)c3)c3c(N)ncnc3n2C)cc1 [Example 967] | 1 to 100 | 1 to 100 | –
53 | C#Cc1ncc(-c2c(-c3ccc(C(=O)N4CCCC4)cc3)c3c(N)ncnc3n2C)cn1 [Example 968] | 0.25 to 1 | 0.25 to 1 | –
54 | C=C(C)C(=O)Nc1ccc(-c2c(C3=CCC(C(=O)N4CCCC4)CC3(F)F)c3c(N)ncnc3n2C)cc1 (centres unmarked) [Example 969] | < 0.1 | ≤ 0.1 | –
55 | C=C(C)C(=O)Nc1ccc(-c2c(-c3ccc(C(=O)N[C@H]4C[C@H](F)C4)c(OC(F)F)c3)c3c(N)ncnc3n2C)cc1 [Example 970] | 1 to 100 | 1 to 100 | –
56 | C=C(C)C(=O)Nc1ccc(-c2c(-c3ccc(C(=O)N[C@H]4C[C@@H](F)C4)c(OC(F)F)c3)c3c(N)ncnc3n2C)cc1 [Example 971] | 0.25 to 1 | 0.25 to 1 | –
57 | C=C(C)C(=O)Nc1ccc(-c2c(-c3ccc(C(=O)N[C@H]4C[C@@H](F)C4)c(OC4CC4)c3)c3c(N)ncnc3n2C)cc1 [Example 976] | 1 to 100 | 1 to 100 | –
58 | C=C(C)C(=O)Nc1ccc(-c2c(-c3ccc(C(=O)N[C@H]4C[C@H](F)C4)c(OC4CC4)c3)c3c(N)ncnc3n2C)cc1 [Example 978] | 0.25 to 1 | 0.25 to 1 | –
